In patent US6579882B2, “Cell adhesion-inhibiting antiinflammatory compounds” (Abbott Laboratories, priority 1998, dated 2003):

Row | melting point | SMILES
1 | 218 to 219 °C | NC(=O)c1cc2c(Oc3ccc(F)c(F)c3F)cncc2s1 [Example 182, 4-(2,3,4-Trifluorophenoxy)thieno[2,3-c]pyridine-2-carboxamide]
2 | 208 to 211 °C | Cc1ccc(Sc2cncc3sc(C(=O)Nc4ccc(Cl)cc4)cc23)cc1 [Example 24, N-(4-chlorophenyl)-4-[(4-methylphenyl)thio]thieno[2,3-c]pyridine-2-carboxamide]
3 | 268 to 270 °C | Nc1nc(-c2cc3c(Oc4ccc(Cl)cc4)cncc3s2)no1 (hydrate or solvate) [Example 289, 3-[4-(4-Chlorophenoxy)thieno[2,3-c]pyridin-2-yl]-1,2,4-oxadiazol-5-amine]
4 | 151 to 152 °C | Clc1ccc(Oc2cncc3sc(-c4ncon4)cc23)cc1 (hydrate or solvate) [Example 287, 4-(4-Chlorophenoxy)-2-(1,2,4-oxadiazol-3-yl)thieno[2,3-c]pyridine]
5 | 200 to 203 °C | CONC(=O)c1cc2c(Sc3ccc(C)cc3)cncc2s1 [Example 23, N-methoxy-4-[(4-methylphenyl)thio]thieno[2,3-c]pyridine-2-carboxamide]
6 | 199 to 202 °C | O=C(Nc1ccc(Cl)cc1)c1cnc2sccc2c1Cl [Example 133, 4-chloro-N-(4-chlorophenyl)thieno[2,3-b]pyridine-5-carboxamide]
7 | 152 to 154 °C | Nc1ccccc1C(=O)c1cc2c(Oc3ccc(Cl)cc3)cncc2s1 [Example 251, (2-Aminophenyl)[4-(4-chlorophenoxy)thieno[2,3-c]pyridin-2-yl]methanone]
8 | 169 to 171 °C | CNC(=O)c1cc2c(Oc3cccc(F)c3F)cncc2s1 [Example 179, 4-(2,3-Difluorophenoxy)-N-methylthieno[2,3-c]pyridine-2-carboxamide]
9 | 202 to 204 °C | NC(=O)c1sc2cncc(Oc3ccc(Cl)cc3)c2c1N [Example 131, 3-amino-4-(4-chlorophenoxy)thieno[2,3-c]pyridine-2-carboxamide]
10 | 175 to 176 °C | NC(=O)c1cc2c(Oc3ccc(C(F)(F)F)cc3)cnc(Cl)c2s1 [Example 318, 7-Chloro-4-[4-(trifluoromethyl)phenoxy]thieno[2,3-c]pyridine-2-carboxamide]
11 | 126 to 128 °C | CON=C(C)c1cc2c(Oc3ccc(Cl)cc3)cncc2s1 [Example 243A, 1-[4-(4-Chlorophenoxy)thieno[2,3-c]pyridin-2-yl]-1-ethanone O-methyloxime]
12 | 280 to 282 °C | Cc1ccc(Sc2ccnc3sc(C(N)=O)cc23)cc1 [Example 132D, 4-[(4-methylphenyl)thio]thieno[2,3-b]pyridine-2-carboxamide]
13 | 101 to 103 °C | Clc1ccc(Oc2cncc3sc(-c4cccs4)cc23)cc1 [Example 292, 4-(4-Chlorophenoxy)-2-(2-thienyl)thieno[2,3-c]pyridine]
14 | 195 to 198 °C (dec.) | CCC(=NO)c1cc2c(Oc3ccc(Cl)cc3)cncc2s1 [Example 246, 1-[4-(4-Chlorophenoxy)thieno[2,3-c]pyridin-2-yl]-1-propanone oxime]
15 | 265 to 268 °C | N#CN=C(N)c1cc2c(Oc3ccc(Cl)cc3)cncc2s1 [Example 250, 4-(4-Chlorophenoxy)-N′-cyanothieno[2,3-c]pyridine-2-carboximidamide]
16 | 195 to 196 °C | CNC(=O)c1cc2c(Oc3ccc(COC4CCCCO4)cc3)cncc2s1 (stereo not shown) [Example 199, N-Methyl-4-{4-[(tetrahydro-2H-pyran-2-yloxy)methyl]phenoxy}thieno[2,3-c]pyridine-2-carboxamide]
17 | 185 to 187 °C | CCc1cc(Oc2cncc3sc(C(N)=O)cc23)ccc1Cl [Example 176, 4-(4-Chloro-3-ethylphenoxy)thieno[2,3-c]pyridine-2-carboxamide]
18 | 76 to 77 °C | O=C(NCC(O)CO)c1cc2c(Oc3ccc(Br)cc3)cncc2s1 (stereo not shown) [Example 149, 4-(4-Bromophenoxy)-N-(2,3-dihydroxypropyl)thieno[2,3-c]pyridine-2-carboxamide]
19 | 194 to 195 °C | CNC(=O)c1cc2c(Oc3cccc(F)c3)cncc2s1 [Example 180, 4-(3-Fluorophenoxy)-N-methylthieno[2,3-c]pyridine-2-carboxamide]
20 | 78.6 to 79.8 °C | NCc1cc2c(Oc3ccc(Cl)cc3)cncc2s1 [Example 256, [4-(4-Chlorophenoxy)thieno[2,3-c]pyridin-2-yl]methanamine]
21 | > 250 °C | NC(=O)c1cc2c(Oc3ccc(Cl)cc3)c[nH]c(=O)c2s1 [Example 323, 4-(4-Chlorophenoxy)-7-oxo-6,7-dihydrothieno[2,3-c]pyridine-2-carboxamide]
22 | 74 to 76 °C | CN(C)C(=O)c1cc2c(Oc3ccc(C(F)(F)F)cc3)cncc2s1 [Example 173, N,N-Dimethyl-4-[4-(trifluoromethyl)phenoxy]thieno[2,3-c]pyridine-2-carboxamide]
23 | 207 to 209 °C | NC(=O)c1cc2c(Oc3cccc(F)c3F)cncc2s1 [Example 178, 4-(2,3-Difluorophenoxy)thieno[2,3-c]pyridine-2-carboxamide]
24 | 178 to 179 °C | CNC(=O)c1cc2c(Oc3ccc(C(F)(F)F)cc3)cnc(Cl)c2s1 [Example 319, 7-Chloro-N-methyl-4-[4-(trifluoromethyl)phenoxy]thieno[2,3-c]pyridine-2-carboxamide]
25 | > 270 °C | Nc1nnc(-c2cc3c(Oc4ccc(Cl)cc4)cncc3s2)[nH]1 [Example 277, 5-[4-(4-Chlorophenoxy)thieno[2,3-c]pyridin-2-yl]-4H-1,2,4-triazol-3-amine]

Second part, the molecule before the results:

Row | SMILES | melting point
26 | CON(C)C(=O)c1cc2c(Sc3ccc(C)cc3)cncc2s1 [Example 22, N-methoxy-N-methyl-4-[(4-methylphenyl)thio]thieno[2,3-c]pyridine-2-carboxamide] | 103 to 107 °C
27 | CCOC(=O)c1cnc2sccc2c1Sc1nnc(C)s1 [Example 134, ethyl 4-[(5-methyl-1,3,4-thiadiazol-2-yl)thio]thieno[2,3-b]pyridine-5-carboxylate] | 93 to 94 °C
28 | CCOC(=O)C1(CC)Cc2c(Sc3ccc(C)cc3)ncnc2S1 (stereo not shown) [Example 7, ethyl 6-ethyl-4-[(4-methylphenyl)thio]thieno[2,3-d]pyrimidine-6-carboxylate] | 87.5 to 90 °C
29 | CCc1cc2c(Nc3nnc(C)s3)ncnc2s1 [Example 9, 6-ethyl-N-(5-methyl-1,3,4-thiadiazol-2-yl)thieno[2,3-d]pyrimidin-4-amine] | 277 to 280 °C
30 | CCc1cc2c(SCc3ccccc3)ncnc2s1 [Example 5, 6-ethyl-4-[(phenylmethyl)thio]thieno[2,3-d]pyrimidine] | 54 to 60 °C
31 | Cc1csc2c(Sc3nnc(N)s3)ncnc12 [Example 14, 4-[(5-amino-1,3,4-thiadiazol-2-yl)thio]-7-methylthieno[3,2-d]pyrimidine] | 221 to 223 °C
32 | Cc1cccc(Sc2cncc3sc(C(N)=O)cc23)c1 [Example 49, 4-[(3-methylphenyl)thio]thieno[2,3-c]pyridine-2-carboxamide] | 171 to 173 °C
33 | Cc1ccccc1Sc1cncc2sc(C(N)=O)cc12 [Example 48, 4-[(2-methylphenyl)thio]thieno[2,3-c]pyridine-2-carboxamide] | 170 to 172 °C
34 | NC(=O)c1cc2c(SC3CCCCC3)cncc2s1 [Example 57, 4-(cyclohexylthio)thieno[2,3-c]pyridine-2-carboxamide] | 205 to 207 °C
35 | Cc1ccc(Sc2cncc3sc(C(N)=O)cc23)cc1C [Example 50, 4-[(3,4-dimethylphenyl)thio]thieno[2,3-c]pyridine-2-carboxamide] | 192 to 194 °C
36 | Cc1ccc(Sc2cncc3sc(C=NOCC(N)=O)cc23)cc1 [Example 31, 2-[[[4-[(4-methylphenyl)thio]thieno[2,3-c]pyridine-2-ylmethylene]amino]oxy]acetamide] | 152 to 156 °C
37 | Cc1ccc(Sc2ncnc3c(C)csc23)cc1 [Example 11, 7-methyl-4-[(4-methylphenyl)thio]thieno[3,2-d]pyrimidine] | 103 to 107 °C
38 | Cc1ccc(Sc2cncc3sc(C(=O)NCC(O)CO)cc23)cc1 (stereo not shown) [Example 37, N-(2,3-dihydroxypropyl)-4-[(4-methylphenyl)thio]thieno[2,3-c]pyridine-2-carboxamide] | 120 to 122 °C
39 | Cc1cc(C)cc(Sc2cncc3sc(C(N)=O)cc23)c1 [Example 51, 4-[(3,5-dimethylphenyl)thio]thieno[2,3-c]pyridine-2-carboxamide] | 177 to 179 °C
40 | CC(=NO)c1cc2c(Sc3ccc(C)cc3)cncc2s1 [Example 36, 1-[4-[(4-methylphenyl)thio]thieno[2,3-c]pyridin-2-yl]ethanone, oxime] | 209 to 213 °C
41 | CSc1nnc(Sc2ncnc3c(C)csc23)s1 [Example 13, 7-methyl-4-[[5-(methylthio)-1,3,4-thiadiazol-2-yl]thio]thieno[3,2-d]pyrimidine] | 163 to 166 °C
42 | Cc1ccc(Sc2cncc3sc(C(=O)c4ccccc4)cc23)cc1 [Example 34, 2-benzoyl-4-[(4-methylphenyl)thio]thieno[2,3-c]pyridine] | 103 to 107 °C
43 | Cc1ccc(Sc2cncc3sc(C=NO)cc23)cc1 [Example 30, 4-[(4-methylphenyl)thio]thieno[2,3-c]pyridine-2-carboxaldehyde, oxime] | 209 to 210 °C
44 | Cc1ccc(Sc2cncc3sc(C=NOCC(=O)O)cc23)cc1 [Example 28, 2-[[[4-[(4-methylphenyl)thio]thieno[2,3-c]pyridin-2-ylmethylene]amino]oxy]acetic acid] | 227 to 230 °C
45 | CC(=O)c1cc2c(Sc3ccc(C)cc3)cncc2s1 [Example 33, 1-[4-[(4-methylphenyl)thio]thieno[2,3-c]pyridin-2-yl]ethanone] | 134 to 138 °C
46 | Cc1ccc(Sc2cncc3sc(C=NOc4ccccc4)cc23)cc1 [Example 29, 4-[(4-methylphenyl)thio]thieno[2,3-c]pyridine-2-carboxaldehyde, O-phenyloxime] | 94 to 97 °C
